≈ marks a conversion by molar mass, not a printed value.
Tests used:
[1] = Cmax in human RBC engrafted NOD-SCID IL-2Rgamma-null mouse at 7 mg/kg, po; type: ADME, organism-based; design: dose 7 mg/kg, route oral; settings: in vivo
Mus musculus [2] = test: Time plasma concentration remained above 1 uM in Swiss outbred mouse plasma at 0.4 mg/kg, po; type: ADME, organism-based; design: dose 0.4 mg/kg, route oral; settings: in vivo
Plasmodium falciparum [3] = test: Antimalarial activity against Plasmodium falciparum D10 by [3H]hypoxanthine incorporation assay; type: functional, organism-based
in vivo [4] = settings: Swiss outbred, mouse, po, 2 mg/kg
[5] = Oral bioavailability in Sprague-Dawley rat at 18.8 mg/kg; type: ADME, organism-based; settings: in vivo
[6] = Cmax in Sprague-Dawley rat at 18.8 mg/kg, po; type: ADME, organism-based; design: dose 18.8 mg/kg, route oral; settings: in vivo
[7] = AUC (0 to infinity) in Sprague-Dawley rat at 2.1 mg/kg, po; type: ADME, organism-based; design: time infinity, dose 2.1 mg/kg, route oral; settings: plasma
Plasmodium falciparum [8] = test: Antimalarial activity against atovoquone-resistant Plasmodium falciparum TM90C2B by [3H]hypoxanthine incorporation assay in presence of human serum; type: functional, organism-based
in vivo [9] = settings: Swiss outbred, mouse, po, 50 mg/kg
[10] = Cmax in Swiss outbred mouse at 50 mg/kg, po; type: ADME, organism-based; design: dose 50 mg/kg, route oral; settings: in vivo
L1210 = test: Cytotoxicity against mouse L1210 cells; type: cell-based
[11] = Volume of distribution in Sprague-Dawley rat at 0.9 mg/kg, iv; type: ADME, organism-based; design: dose 0.9 mg/kg, route intravenous; settings: in vivo
[12] = Plasma protein binding in Swiss outbred mouse by ultracentrifugation; settings: read-out: PPB (converted)
[13] = Cmax in Swiss outbred mouse at 2 mg/kg, po; type: ADME, organism-based; design: dose 2 mg/kg, route oral; settings: in vivo
[14] = AUC (0 to infinity) in Swiss outbred mouse plasma at 0.4 mg/kg, po; type: ADME, organism-based; design: time infinity, dose 0.4 mg/kg, route oral
in vivo [15] = settings: Sprague-Dawley, rat, po, 18.8 mg/kg
Plasmodium falciparum [16] = test: Antimalarial activity against Plasmodium falciparum 3D7 0087/N9 infected in human RBC engrafted NOD-SCID IL-2Rgamma-null mouse assessed as reduction in parasitemia administered orally 3 days post infection qd for 4 days measured 24 hrs after final dose by FACS analysis; type: functional; settings: 3D7 0087/N9, po
Mus musculus [17] = test: AUC (0 to 24 hrs) in human RBC engrafted NOD-SCID IL-2Rgamma-null mouse at 7 mg/kg, po; type: ADME, organism-based, Plasma; design: time < 24 hr, dose 7 mg/kg, route oral; settings: in vivo
Plasmodium falciparum [18] = test: Antimalarial activity against Plasmodium falciparum D10 transfected with yeast DHODH by [3H]hypoxanthine incorporation assay; type: functional, organism-based
[19] = Terminal elimination half life in Sprague-Dawley rat at 2.6 mg/kg, iv; type: ADME, organism-based; design: dose 2.6 mg/kg, route intravenous; settings: in vivo, read-out: beta t1/2 (converted)
[20] = Oral bioavailability in Sprague-Dawley rat at 2.1 mg/kg; type: ADME, organism-based; settings: in vivo
in vivo [21] = settings: Sprague-Dawley, rat, po, 2.1 mg/kg
[22] = Terminal elimination half life in Swiss outbred mouse at 0.4 mg/kg, po; type: ADME, organism-based; design: dose 0.4 mg/kg, route oral; settings: in vivo, read-out: beta t1/2 (converted)
Plasmodium falciparum [23] = test: Antimalarial activity against chloroquine and pyrimethamine-resistant Plasmodium falciparum K1 by [3H]hypoxanthine incorporation assay in presence of human serum; type: functional, organism-based
Plasmodium falciparum [24] = test: Antimalarial activity against […] Plasmodium falciparum TM90C2A by [3H]hypoxanthine incorporation assay in presence of human serum; type: functional, organism-based
Plasmodium falciparum [25] = test: Antimalarial activity against drug-sensitive Plasmodium falciparum HB3 by [3H]hypoxanthine incorporation assay in presence of human serum; type: functional, organism-based
[26] = Terminal elimination half life in Swiss outbred mouse at 50 mg/kg, po; type: ADME, organism-based; design: dose 50 mg/kg, route oral; settings: in vivo, read-out: beta t1/2 (converted)
in vivo [27] = settings: Sprague-Dawley, rat, po, 46.7 mg/kg
Plasma = test: Plasma protein binding in human by chromatographic method; type: ADME, cell-free
HepG2 = test: Cytotoxicity against human HepG2 cells; type: cell-based
Plasmodium falciparum [28] = test: Antimalarial activity against chloroquine-resistant Plasmodium falciparum Dd2 by [3H]hypoxanthine incorporation assay in presence of human serum; type: functional, organism-based
[29] = Cmax in human RBC engrafted NOD-SCID IL-2Rgamma-null mouse infected with Plasmodium falciparum 3D7 0087/N9 at 7 mg/kg, po; type: ADME, organism-based; design: dose 7 mg/kg, route oral; settings: in vivo
[30] = AUC (0 to infinity) in Swiss outbred mouse plasma at 2 mg/kg, po; type: ADME, organism-based; design: time infinity, dose 2 mg/kg, route oral
[31] = AUC (0 to infinity) in Swiss outbred mouse plasma at 10 mg/kg, po; type: ADME, organism-based; design: time infinity, dose 10 mg/kg, route oral
[32] = Terminal elimination half life in Sprague-Dawley rat at 0.9 mg/kg, iv; type: ADME, organism-based; design: dose 0.9 mg/kg, route intravenous; settings: in vivo, read-out: beta t1/2 (converted)
[33] = Terminal elimination half life in Sprague-Dawley rat at 2.1 mg/kg, po; type: ADME, organism-based; design: dose 2.1 mg/kg, route oral; settings: in vivo, read-out: beta t1/2 (converted)
Mus musculus [34] = test: Time plasma concentration remained above 1 uM in Swiss outbred mouse plasma at 10 mg/kg, po; type: ADME, organism-based; design: dose 10 mg/kg, route oral; settings: in vivo
[35] = Volume of distribution in Sprague-Dawley rat at 2.6 mg/kg, iv; type: ADME, organism-based; design: dose 2.6 mg/kg, route intravenous; settings: in vivo
Plasmodium falciparum [36] = test: Antimalarial activity against Plasmodium falciparum 3D7 by [3H]hypoxanthine incorporation assay in presence of albumax; type: functional, organism-based
[37] = Aqueous solubility of the compound at pH 6.5; type: physicochemical
in vivo [38] = settings: Swiss outbred, mouse, po, 0.4 mg/kg
[39] = Cmax in Sprague-Dawley rat at 46.7 mg/kg, po; type: ADME, organism-based; design: dose 46.7 mg/kg, route oral; settings: in vivo
in vivo [40] = settings: Swiss outbred, mouse, po, 10 mg/kg
[41] = Cmax in Swiss outbred mouse at 0.4 mg/kg, po; type: ADME, organism-based; design: dose 0.4 mg/kg, route oral; settings: in vivo
in vivo [42] = settings: NOD-SCID IL-2Rgamma-null, mouse, po, 7 mg/kg
[43] = Clearance in Sprague-Dawley rat at 2.6 mg/kg, iv; type: ADME, organism-based; design: dose 2.6 mg/kg, route intravenous; settings: in vivo
[44] = Oral bioavailability in Sprague-Dawley rat at 46.7 mg/kg; type: ADME, organism-based; settings: in vivo
[45] = Terminal elimination half life in Sprague-Dawley rat at 18.8 mg/kg, po; type: ADME, organism-based; design: dose 18.8 mg/kg, route oral; settings: in vivo, read-out: beta t1/2 (converted)
[46] = AUC (0 to infinity) in Sprague-Dawley rat at 46.7 mg/kg, po; type: ADME, organism-based; design: time infinity, dose 46.7 mg/kg, route oral; settings: plasma
Mus musculus [47] = test: Time plasma concentration remained above 1 uM in Swiss outbred mouse plasma at 2 mg/kg, po; type: ADME, organism-based; design: dose 2 mg/kg, route oral; settings: in vivo
[48] = Terminal elimination half life in Swiss outbred mouse at 10 mg/kg, po; type: ADME, organism-based; design: dose 10 mg/kg, route oral; settings: in vivo, read-out: beta t1/2 (converted)
[49] = Plasma protein binding in Sprague-Dawley rat at 2.1 to 46.7 mg/kg, po; type: ADME, organism-based; design: dose 2.1-46.7 mg/kg, route oral; settings: read-out: PPB (converted)
Plasmodium falciparum [50] = test: Antimalarial activity against Plasmodium falciparum 3D7 by [3H]hypoxanthine incorporation assay in presence of human serum; type: functional, organism-based
[51] = Cmax in Swiss outbred mouse at 10 mg/kg, po; type: ADME, organism-based; design: dose 10 mg/kg, route oral; settings: in vivo
[52] = Terminal elimination half life in Sprague-Dawley rat at 46.7 mg/kg, po; type: ADME, organism-based; design: dose 46.7 mg/kg, route oral; settings: in vivo, read-out: beta t1/2 (converted)
[53] = Terminal elimination half life in Swiss outbred mouse at 2 mg/kg, po; type: ADME, organism-based; design: dose 2 mg/kg, route oral; settings: in vivo, read-out: beta t1/2 (converted)
[54] = AUC (0 to infinity) in Sprague-Dawley rat at 18.8 mg/kg, po; type: ADME, organism-based; design: time infinity, dose 18.8 mg/kg, route oral; settings: plasma
[55] = Cmax in Sprague-Dawley rat at 2.1 mg/kg, po; type: ADME, organism-based; design: dose 2.1 mg/kg, route oral; settings: in vivo
Plasmodium falciparum [56] = test: Antimalarial activity against drug-sensitive Plasmodium falciparum D6 by [3H]hypoxanthine incorporation assay in presence of human serum; type: functional, organism-based
[57] = AUC (0 to infinity) in Swiss outbred mouse plasma at 50 mg/kg, po; type: ADME, organism-based; design: time infinity, dose 50 mg/kg, route oral
in vivo [58] = settings: NOD-SCID IL-2Rgamma-null, mouse, po, 7 mg/kg; remark: listed apart in the source
Liver microsomes = test: Intrinsic clearance in human liver microsomes; type: ADME, Microsome

Compound Cc1cc(Nc2ccc(S(F)(F)(F)(F)F)cc2)n2nc(C(C)(F)F)nc2n1 [DSM-265] has a Cmax [1] of 6.1 µM, a Time (Mus musculus [2]) of 0 h and an EC50 (Plasmodium falciparum [3]) of 86 nM. The Tmax (in vivo [4]) was 1 h, the bioavailability [5] was 57% and the Cmax [6] was 3.9 µM. It also gave an AUC(0-inf) [7] of 15.5 µM·h, an EC50 (Plasmodium falciparum [8]) of 15 nM and a Tmax (in vivo [9]) of 2 h. It also gave a Cmax [10] of 9.53 µM, an EC50 (L1210) greater than 50000 nM and a Vd [11] of 2.9 L/kg. It also gave a fraction unbound [12] of 0.004, a Cmax [13] of 0.44 µM and an AUC(0-inf) [14] of 0.45 µM·h. For the same compound, the Tmax (in vivo [15]) was 7 h, the ED50 (Plasmodium falciparum [16]) was 2.8 mg/kg and the ED90 (Plasmodium falciparum [16]) was 8.1 mg/kg. The AUC (Mus musculus [17]) was 3469 µM·min, the EC50 (Plasmodium falciparum [18]) was greater than 20000 nM and the half-life [19] was 12.6 h. For the same compound, the bioavailability [20] was 66%, the Tmax (in vivo [21]) was 3.25 h and the half-life [22] was 4.1 h. For the same compound, the EC50 (Plasmodium falciparum [23]) was 57 nM, the EC50 (Plasmodium falciparum [24]) was 31 nM and the EC50 (Plasmodium falciparum [25]) was 27 nM. It also gave a half-life [26] of 3.2 h, a Tmax (in vivo [27]) of 17 h and a PPB (Plasma) of 97.4%. It also gave an EC50 (HepG2) greater than 50000 nM, an EC50 (Plasmodium falciparum [28]) of 57 nM and a Cmax [29] of 5.3 µM. The AUC(0-inf) [30] was 2.72 µM·h, the AUC(0-inf) [31] was 22.6 µM·h and the half-life [32] was 10.1 h. The half-life [33] was 11.6 h, the Time (Mus musculus [34]) was 8 h and the Vd [35] was 5.9 L/kg. The EC50 (Plasmodium falciparum [36]) was 7.8 nM, the solubility [37] was 30 µM (≈ 12.5 µg/mL) and the Tmax (in vivo [38]) was 0.5 h. For the same compound, the Cmax [39] was 6.4 µM, the Tmax (in vivo [40]) was 1.5 h and the Cmax [41] was 0.06 µM. The Tmax (in vivo [42]) was 6.7 h, the clearance [43] was 6 mL/min/kg and the bioavailability [44] was 61%. For the same compound, the half-life [45] was 15.5 h, the AUC(0-inf) [46] was 322 µM·h and the Time (Mus musculus [47]) was 0 h. It also gave a half-life [48] of 2.5 h, a fraction unbound [49] of 0.027 and an EC50 (Plasmodium falciparum [50]) of 46 nM. The Cmax [51] was 3.1 µM, the half-life [52] was 27.9 h and the half-life [53] was 3.5 h. It also gave an AUC(0-inf) [54] of 122 µM·h, a Cmax [55] of 0.75 µM and an EC50 (Plasmodium falciparum [56]) of 22 nM. For the same compound, the AUC(0-inf) [57] was 33.8 µM·h, the Tmax (in vivo [58]) was 4 h and the Intrinsic clearance (Liver microsomes) was less than 5 µL/min/mg.
